In PMC6592956, “Characterization of Porcine Hepatic and Intestinal Drug Metabolizing CYP450: Comparison with Human Orthologues from A Quantitative, Activity and Selectivity Perspective” (Scientific Reports, 2019):
Entries after “also recorded” stand apart in the source; their conditions may differ. Marks after values point to notes of the source that are not given here.

Assays:
CYP2A [1] = test system: CYP2A; design: method as in Cyrus et al., 2011 and references herein; conditions: human; ref Cyrus et al., 2011 and references herein; cited from earlier work
CYP2C = conditions: for Ratio of residual activity (substrate + inhibitor versus substrate only), CYP2C TB: TB 200 µM, inhibitors SFZ 0.5, α-NFV 0.1 (1 µM), QND 0.1, KET 0.3, DDC 20, 8-MPS 1 µM, mean (SD) of 3
CYP2E = experiment: Incubation with inhibitors: CZ-hydroxylation in porcine hepatic microsomes; format: in vitro ADME, conventional pig; conditions: for Ratio of residual activity (substrate + inhibitor versus substrate only), CYP2E CZ: CZ 50 µM, inhibitors SFZ 0.5, α-NFV 0.1 (1 µM), QND 0.1, KET 0.3, DDC 20, 8-MPS 1 µM, mean (SD) of 3; for Inhibition of CZ-hydroxylation by inhibitor: porcine hepatic microsomes
Method: (§1) The inhibitors used were α-NFV, 8-MPS, KET, SFZ, QND, and DDC for CYP1A/2 A, CYP2A, CYP3A, CYP2C, CYP2D, and CYP2E1, respectively. […] All incubations were performed in triplicate.

CYP2D [2] = target: T1, CYP2D (Sus scrofa, UniProt O46658); experiment: Incubation with inhibitors: DXM-O-demethylation in porcine hepatic microsomes; format: in vitro ADME, conventional pig; conditions: for Ratio of residual activity (substrate + inhibitor versus substrate only), CYP2D DXM: DXM 10 µM, inhibitors SFZ 0.5, α-NFV 0.1 (1 µM), QND 0.1, KET 0.3, DDC 20, 8-MPS 1 µM, mean (SD) of 3; for Inhibition of DXM-O-demethylation by inhibitor: porcine hepatic microsomes
T1 construct: from tissue; host or cells: pig liver microsomes
T1 sequence (O46658 1-500): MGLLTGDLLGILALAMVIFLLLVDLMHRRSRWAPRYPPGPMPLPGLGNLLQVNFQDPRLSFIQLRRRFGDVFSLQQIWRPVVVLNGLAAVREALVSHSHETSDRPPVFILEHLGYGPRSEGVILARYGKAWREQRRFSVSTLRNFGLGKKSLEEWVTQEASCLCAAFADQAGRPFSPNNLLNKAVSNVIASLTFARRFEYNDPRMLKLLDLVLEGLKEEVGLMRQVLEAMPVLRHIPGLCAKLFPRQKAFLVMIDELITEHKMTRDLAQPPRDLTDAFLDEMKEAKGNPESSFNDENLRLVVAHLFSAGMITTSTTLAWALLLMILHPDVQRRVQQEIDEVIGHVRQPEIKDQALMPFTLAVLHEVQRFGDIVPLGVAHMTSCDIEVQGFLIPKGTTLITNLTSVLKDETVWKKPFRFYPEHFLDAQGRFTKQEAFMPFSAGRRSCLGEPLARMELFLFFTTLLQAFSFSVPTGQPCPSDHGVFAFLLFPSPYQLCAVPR
Method: as §1

CYP2A [3] = experiment: Incubation with inhibitors: CM-hydroxylation in porcine hepatic microsomes; format: in vitro ADME, conventional pig; conditions: for Ratio of residual activity (substrate + inhibitor versus substrate only), CYP2A CM: CM 1 µM, inhibitors SFZ 0.5, α-NFV 0.1 (1 µM), QND 0.1, KET 0.3, DDC 20, 8-MPS 1 µM, mean (SD) of 3
Method: as §1

CYP2E1 = test system: CYP2E1; design: method as in Baranovà et al., 2005; Pratt-hyatt et al., 2010; conditions: human; ref Baranovà et al., 2005; Pratt-hyatt et al., 2010; cited from earlier work
CYP1A = experiment: Incubation with inhibitors: PH-O-deethylation in porcine hepatic microsomes; format: in vitro ADME, conventional pig; conditions: PH 20 µM; inhibitors SFZ 0.5, α-NFV 0.1 (1 µM), QND 0.1, KET 0.3, DDC 20, 8-MPS 1 µM; mean (SD) of 3
Method: as §1

CYP3A [4] = experiment: Incubation with inhibitors: MDZ-hydroxylation in porcine hepatic microsomes; format: in vitro ADME, conventional pig; conditions: for Ratio of residual activity (substrate + inhibitor versus substrate only), CYP3A MDZ: MDZ 20 µM, inhibitors SFZ 0.5, α-NFV 0.1 (1 µM), QND 0.1, KET 0.3, DDC 20, 8-MPS 1 µM, mean (SD) of 3
Method: as §1

CYP3A [5] = conditions: human; ref Cyrus et al., 2011 and references herein; cited from earlier work
[6] = test system: hepatic CYP450 abundancies; experiment: Pearson correlation between hepatic CYP450 abundancies and probe activities
porcine CYP450 = conditions: outcome of general decision tree, Figure 4
human CYP450 = conditions: Supplementary Table 4; ref Yuan et al., 2002 and references herein; cited from earlier work
[7] = test system: porcine intestinal CYP450 enzymes; experiment: in vitro; conditions: pig, pool of 16 pigs, n=3, mean (SD)
[8] = test system: porcine intestinal CYP450 enzymes
porcine CYP2D25 = test system: porcine CYP2D25; design: method as in Skaanild, 2006; Hosseinpour and Wikvall, 2000; conditions: ref Skaanild, 2006; Hosseinpour and Wikvall, 2000; cited from earlier work
CYP2D [9] = test system: CYP2D; design: method as in Cyrus et al., 2011 and references herein; conditions: human; ref Cyrus et al., 2011 and references herein; cited from earlier work
CYP2D6 = test system: CYP2D6; design: method as in Cyrus et al, 2011; conditions: ref Cyrus et al, 2011; cited from earlier work

## COc1c2occc2cc2ccc(=O)oc12 [8-methoxypsoralen]
CYP2A [1]
  Ki: 100 to 1500 nM

## CCN(CC)C(=S)S [Diethyldithiocarbamate, diethyldithiocarbamate]
CYP2C
  Ratio of residual activity (substrate + inhibitor versus substrate only), CYP2C TB: 0.87 (0.046)
CYP2C; porcine hepatic microsomes
  Inhibition of TB-hydroxylation by inhibitor: decreased
CYP2E
  Ratio of residual activity (substrate + inhibitor versus substrate only), CYP2E CZ: 0.87 (0.003)-
  Inhibition of CZ-hydroxylation by inhibitor: decreased
CYP2D [2]
  Ratio of residual activity (substrate + inhibitor versus substrate only), CYP2D DXM: 0.93 (0.084)
CYP2A [3]
  Ratio of residual activity (substrate + inhibitor versus substrate only), CYP2A CM: 0.74 (0.079)
CYP2A [3]; porcine hepatic microsomes
  Inhibition of CM-hydroxylation by inhibitor: decreased
CYP2E1
  Ki: 12200 to 38000 nM
CYP1A
  Ratio of residual activity (substrate + inhibitor versus substrate only), CYP1A PH: 1.04 (0.010)
CYP3A [4]
  Ratio of residual activity (substrate + inhibitor versus substrate only), CYP3A MDZ: 1.15 (0.074)

## CC(=O)N1CCN(c2ccc(OCC3COC(Cn4ccnc4)(c4ccc(Cl)cc4Cl)O3)cc2)CC1 (centres unmarked) [Ketoconazole, ketoconazole]
CYP2E
  Inhibition of CZ-hydroxylation by inhibitor: 20%
CYP2D [2]
  Inhibition of DXM-O-demethylation by inhibitor: could not inhibit
CYP3A [5]
  Ki: […]
CYP3A [4]; porcine hepatic microsomes
  Effect of inhibitor on MDZ-hydroxylation: potent inhibitors

## Cc1ncc2n1-c1ccc(Cl)cc1C(c1ccccc1F)=NC2 [MDZ, Midazolam]
[6]; level 1 (MDZ 0.50 µM)
  Pearson's correlation coefficient, MDZ activity vs hepatic CYP3A22 abundance: 0.54
[6]; level 2 (MDZ 2.00 µM)
  Pearson's correlation coefficient, MDZ activity vs hepatic CYP3A22 abundance: 0.62
[6]; level 3 (MDZ 5.00 µM)
  Pearson's correlation coefficient, MDZ activity vs hepatic CYP3A22 abundance: 0.69*
[6]; level 4 (MDZ 10.0 µM)
  Pearson's correlation coefficient, MDZ activity vs hepatic CYP3A22 abundance: 0.71*
[6]; level 5 (MDZ 20.0 µM)
  Pearson's correlation coefficient, MDZ activity vs hepatic CYP1A2 abundance: 0.51
  Pearson's correlation coefficient, MDZ activity vs hepatic CYP3A22 abundance: 0.72*
  Pearson's correlation coefficient, MDZ activity vs hepatic CYP3A46 abundance: 0.57
[6]; level 6 (MDZ 50.0 µM)
  Pearson's correlation coefficient, MDZ activity vs hepatic CYP1A2 abundance: 0.56
  Pearson's correlation coefficient, MDZ activity vs hepatic CYP3A22 abundance: 0.65*
  Pearson's correlation coefficient, MDZ activity vs hepatic CYP3A46 abundance: 0.68*
Porcine CYP450
  Enzyme involvement: High affinity: CYP3A
Human CYP450
  Km: 3 to 5 µM
[7]; Duodenum Km, duodenal microsomes
  Km at 10 min: 22.1 µM
[7]; Ileum Km, ileal microsomes
  Km at 10 min: 16.2 µM
[7]; Jejunum Km, jejunal microsomes
  Km at 10 min: 23.1 µM
[8]; duodenal microsomes, pool of 16 pigs, n=3, mean (SD)
  Duodenum a (Hill coefficient): 1.26 (0.048)
[8]; ileal microsomes, pool of 16 pigs, n=3, mean (SD)
  Ileum a (Hill coefficient): 1.56 (0.45)
[8]; intestinal versus hepatic microsomes
  Vmax in intestinal microsomes as % of the hepatic Vmax: 2%
[8]; jejunal microsomes, pool of 16 pigs, n=3, mean (SD)
  Jejunum a (Hill coefficient): 1.41 (0.043)

## C=C[C@H]1C[N@@]2CC[C@H]1C[C@@H]2[C@@H](O)c1ccnc2ccc(OC)cc12 [Quinidine, quinidine]
CYP2D [2]; listed as QND
  Inhibition of DXM-O-demethylation by inhibitor: did not inhibit; also recorded: no inhibition
Porcine CYP2D25
  Inhibition of porcine CYP2D25: not to inhibit
CYP2D [9]
  Ki: 30 to 400 nM

## Nc1ccc(S(=O)(=O)Nc2ccnn2-c2ccccc2)cc1 [Sulphaphenazole, sulphaphenazole]
CYP2C
  Ratio of residual activity (substrate + inhibitor versus substrate only), CYP2C TB: 0.98 (0.135)
CYP2E
  Ratio of residual activity (substrate + inhibitor versus substrate only), CYP2E CZ: 1.03 (0.061)
CYP2D [2]
  Ratio of residual activity (substrate + inhibitor versus substrate only), CYP2D DXM: 0.97 (0.080)
CYP2D6
  Inhibition of CYP2D6 in men: do not significantly inhibit
CYP2A [3]
  Ratio of residual activity (substrate + inhibitor versus substrate only), CYP2A CM: 1.05 (0.023)
CYP1A
  Ratio of residual activity (substrate + inhibitor versus substrate only), CYP1A PH: 1.09 (0.030)
CYP3A [4]
  Ratio of residual activity (substrate + inhibitor versus substrate only), CYP3A MDZ: 1.20 (0.050)
